Laboratory results as given in US12421229B2, “Hydropyrido[1,2-α]pyrazine compounds for the treatment of autoimmune disease” (Hoffmann-La Roche Inc., priority 2019, dated 2025).

Target: T1, human TLR7 (Homo sapiens, UniProt Q9NYK1)
T1 construct: host or cells: HEK293 (HEK-Blue hTLR7)
T1 sequence (Q9NYK1 27-1049): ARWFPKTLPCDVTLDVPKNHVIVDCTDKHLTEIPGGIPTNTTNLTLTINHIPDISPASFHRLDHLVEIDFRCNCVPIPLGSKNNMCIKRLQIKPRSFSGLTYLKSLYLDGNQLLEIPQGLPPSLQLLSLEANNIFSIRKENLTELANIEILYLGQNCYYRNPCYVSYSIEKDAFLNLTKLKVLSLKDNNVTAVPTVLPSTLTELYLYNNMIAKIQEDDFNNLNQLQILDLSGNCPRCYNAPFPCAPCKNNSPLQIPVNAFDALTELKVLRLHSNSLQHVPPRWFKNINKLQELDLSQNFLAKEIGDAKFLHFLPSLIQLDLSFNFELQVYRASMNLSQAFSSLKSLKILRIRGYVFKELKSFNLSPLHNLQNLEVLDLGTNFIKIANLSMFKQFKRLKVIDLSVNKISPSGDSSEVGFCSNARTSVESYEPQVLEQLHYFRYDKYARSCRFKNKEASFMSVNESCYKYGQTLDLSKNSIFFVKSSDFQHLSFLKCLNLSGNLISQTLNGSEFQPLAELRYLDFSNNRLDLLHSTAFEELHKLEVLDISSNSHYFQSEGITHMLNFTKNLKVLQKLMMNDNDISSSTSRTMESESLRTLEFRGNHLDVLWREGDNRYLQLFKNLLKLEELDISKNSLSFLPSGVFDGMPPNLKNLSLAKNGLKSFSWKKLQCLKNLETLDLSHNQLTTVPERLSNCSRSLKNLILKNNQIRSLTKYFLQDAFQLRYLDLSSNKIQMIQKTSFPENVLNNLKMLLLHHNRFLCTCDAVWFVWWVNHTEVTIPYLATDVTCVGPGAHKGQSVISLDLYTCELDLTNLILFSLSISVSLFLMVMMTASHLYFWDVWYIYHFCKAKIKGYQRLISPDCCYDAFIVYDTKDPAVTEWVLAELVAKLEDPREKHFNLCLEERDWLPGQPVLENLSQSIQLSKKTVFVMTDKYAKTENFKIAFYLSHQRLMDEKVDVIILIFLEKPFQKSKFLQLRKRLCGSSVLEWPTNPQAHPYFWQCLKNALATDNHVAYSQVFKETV
Assay: HEK293-Blue-hTLR-7 cells assay
Format: cell-based
Conditions: HEK293-Blue-hTLR7 cells, R848 stimulation, 20 hrs, SEAP reporter; read-out: HEK/hTLR7 IC50
Description: A stable HEK293-Blue-hTLR-7 cell line was purchased from InvivoGen (Cat. #: hkb-htlr7, San Diego, California, USA). These cells were originally designed for studying the stimulation of human TLR7 by monitoring the activation of NF-κB. A SEAP (secreted embryonic alkaline phosphatase) reporter gene was placed under the control of the IFN-β minimal promoter fused to five NF-κB and AP-1-binding sites. The SEAP was induced by activating NF-κB and AP-1 via stimulating HEK-Blue hTLR7 cells with TLR7 ligands. Therefore the reporter expression was declined by TLR7 antagonist under the stimulation of a ligand, such as R848 (Resiquimod), for incubation of 20 hrs. The cell culture supernatant SEAP reporter activity was determined using QUANTI-Blue™ kit (Cat. #: rep-qb1, Invivogen, San Diego, Ca, USA) at a wavelength of 640 nm, a detection medium that turns purple or blue in the presence of alkaline phosphatase.
HEK293-Blue-hTLR7 cells were incubated at a density of 250,000˜450,000 cells/mL in a volume of 170 μL in a 96-well plate in Dulbecco's Modified Eagle's medium (DMEM) containing 4.5 g/L glucose, 50 U/mL penicillin, […], […], 2 mM L-glutamine, 10% (v/v) heat-inactivated fetal bovine serum with addition of 20 μL test compound in a serial dilution in the presence of final DMSO at 1% and 10 μL of 20 uM R848 in above DMEM, perform incubation under 37° C. in a CO2 incubator for 20 hrs. Then 20 μL of the supernatant from each well was incubated with 180 μL Quanti-blue substrate solution at 37° C. for 2 hrs and the absorbance was read at 620˜655 nm using a spectrophotometer. The signaling pathway that TLR7 activation leads to downstream NF-κB activation has been widely accepted, and therefore similar reporter assay was modified for evaluating TLR7 antagonist.

Compound | IC50
C[C@@H]1CN(c2ccc(C#N)c3ncccc23)C[C@@H]2C[C@H](c3ccc(N4CCNCC4)nc3)CCN21 (stereo in doubt) [Example 2, 5-[(4R,8R)-4-methyl-8-(6-piperazin-1-yl-3-pyridyl)-1,3,4,6,7,8,9,9a-octahydropyrido[1,2-a]pyrazin-2-yl]quinoline-8-carbonitrile] | 4 nM
C[C@@H]1CN(c2ccc(C#N)c3ncccc23)C[C@@H]2CC(c3ccc(C[C@@H]4CNCCO4)cc3)CCN21 (stereo in doubt) [Example 25, 5-[(4R,8R,9aS)-4-methyl-8-[4-[[(2R)-morpholin-2-yl]methyl]phenyl]-1,3,4,6,7,8,9,9a-octahydropyrido[1,2-a]pyrazin-2-yl]quinoline-8-carbonitrile] | 8 nM
C[C@@H]1CN(c2ccc(C#N)c3ncccc23)C[C@@H]2C[C@H](NCc3ccc(N4CCNCC4)cc3)CCN21 [Example 1, 5-[(4R,8R,9aS)-4-methyl-8-[(4-piperazin-1-ylphenyl)methylamino]-1,3,4,6,7,8,9,9a-octahydropyrido[1,2-a]pyrazin-2-yl]quinoline-8-carbonitrile] | 33 nM
C[C@@H]1CN(c2ccc(C#N)c3ncccc23)CC2C[C@H](c3ccc(N4CCNCC4)cc3)CCN21 (stereo partly drawn) [Example 3, 5-[(4R,8R)-4-methyl-8-(4-piperazin-1-ylphenyl)-1,3,4,6,7,8,9,9a-octahydropyrido[1,2-a]pyrazin-2-yl]quinoline-8-carbonitrile] | 10 nM
C[C@@H]1CN(c2ccc(C#N)c3ncccc23)C[C@@H]2C[C@H](c3ccc(N4CCNCC4)nc3)CCN21 [Example 4, 5-[(4R,8R,9aS)-4-methyl-8-(6-piperazin-1-yl-3-pyridyl)-1,3,4,6,7,8,9,9a-octahydropyrido[1,2-a]pyrazin-2-yl]quinoline-8-carbonitrile] | 6 nM
CO[C@H]1CN(c2ccc([C@@H]3CCN4[C@@H](C3)CN(c3ccc(C#N)c5ncccc35)C[C@H]4C)cn2)C[C@@H]1N [Example 6, 5-[(4R,8R,9aS)-8-[6-[(3S,4S)-3-amino-4-methoxy-pyrrolidin-1-yl]-3-pyridyl]-4-methyl-1,3,4,6,7,8,9,9a-octahydropyrido[1,2-a]pyrazin-2-yl]quinoline-8-carbonitrile] | 41 nM
C[C@@H]1CN(c2ccc(C#N)c3ncccc23)C[C@@H]2C[C@H](c3ccc(N4CC(N)C4)nc3)CCN21 [Example 7, 5-[(4R,8R,9aS)-8-[6-(3-aminoazetidin-1-yl)-3-pyridyl]-4-methyl-1,3,4,6,7,8,9,9a-octahydropyrido[1,2-a]pyrazin-2-yl]quinoline-8-carbonitrile] | 32 nM
C[C@@H]1CN(c2ccc(C#N)c3ncccc23)C[C@@H]2C[C@H](N3CC(c4ccc(N5CCNCC5)cc4)C3)CCN21 [Example 9, 5-[(4R,8R,9aS)-4-methyl-8-[3-(4-piperazin-1-ylphenyl)azetidin-1-yl]-1,3,4,6,7,8,9,9a-octahydropyrido[1,2-a]pyrazin-2-yl]quinoline-8-carbonitrile] | 27 nM
C[C@@H]1CN(c2ccc(C#N)c3ncccc23)C[C@@H]2C[C@@H](Oc3ccc(N4CCNCC4)cn3)CCN21 [Example 11, 5-[(4R,8S,9aS)-4-methyl-8-[(5-piperazin-1-yl-2-pyridyl)oxy]-1,3,4,6,7,8,9,9a-octahydropyrido[1,2-a]pyrazin-2-yl]quinoline-8-carbonitrile] | 46 nM
CO[C@H]1CN(c2ccc([C@@H]3CCN4[C@@H](C3)CN(c3ccc(C#N)c5ncccc35)C[C@H]4C)cn2)C[C@H]1N [Example 12, 5-[(4R,8R,9aS)-8-[6-[(3R,4S)-3-amino-4-methoxy-pyrrolidin-1-yl]-3-pyridyl]-4-methyl-1,3,4,6,7,8,9,9a-octahydropyrido[1,2-a]pyrazin-2-yl]quinoline-8-carbonitrile] | 17 nM
CO[C@@H]1CN(c2ccc([C@@H]3CCN4[C@@H](C3)CN(c3ccc(C#N)c5ncccc35)C[C@H]4C)cn2)C[C@@H]1N [Example 13, 5-[(4R,8R,9aS)-8-[6-[(3S,4R)-3-amino-4-methoxy-pyrrolidin-1-yl]-3-pyridyl]-4-methyl-1,3,4,6,7,8,9,9a-octahydropyrido[1,2-a]pyrazin-2-yl]quinoline-8-carbonitrile] | 21 nM
CO[C@@H]1CN(c2ccc([C@@H]3CCN4[C@@H](C3)CN(c3ccc(C#N)c5ncccc35)C[C@H]4C)cn2)C[C@H]1N [Example 14, 5-[(4R,8R,9aS)-8-[6-[(3R,4R)-3-amino-4-methoxy-pyrrolidin-1-yl]-3-pyridyl]-4-methyl-1,3,4,6,7,8,9,9a-octahydropyrido[1,2-a]pyrazin-2-yl]quinoline-8-carbonitrile] | 23 nM
C[C@@H]1CN(c2ccc(C#N)c3ncccc23)C[C@H]2C[C@H](c3ccc(N4CCNCC4)nc3)CCN21 [Example 15, 5-[(4R,8R,9aR)-4-methyl-8-(6-piperazin-1-yl-3-pyridyl)-1,3,4,6,7,8,9,9a-octahydropyrido[1,2-a]pyrazin-2-yl]quinoline-8-carbonitrile] | 24 nM
C[C@@H]1CN(c2ccc(C#N)c3ncccc23)C[C@@H]2C[C@@H](Oc3ccc(N4CCNCC4)nc3)CCN21 [Example 16, 5-[(4R,8S,9aS)-4-methyl-8-[(6-piperazin-1-yl-3-pyridyl)oxy]-1,3,4,6,7,8,9,9a-octahydropyrido[1,2-a]pyrazin-2-yl]quinoline-8-carbonitrile] | 35 nM
C[C@@H]1CN(c2ccc(C#N)c3ncccc23)C[C@@H]2C[C@@H](NCc3ccc(N4CCNCC4)cc3)CCN21 [Example 17, 5-[(4R,8S,9aS)-4-methyl-8-[(4-piperazin-1-ylphenyl)methylamino]-1,3,4,6,7,8,9,9a-octahydropyrido[1,2-a]pyrazin-2-yl]quinoline-8-carbonitrile] | 35 nM
C[C@@H]1CN(c2ccc(C#N)c3ncccc23)C[C@@H]2C[C@@H](Oc3cnc(N4CCNCC4)nc3)CCN21 [Example 18, 5-[(4R,8S,9aS)-4-methyl-8-(2-piperazin-1-ylpyrimidin-5-yl)oxy-1,3,4,6,7,8,9,9a-octahydropyrido[1,2-a]pyrazin-2-yl]quinoline-8-carbonitrile] | 21 nM
C[C@@H]1CN(c2ccc(C#N)c3ncccc23)C[C@@H]2C[C@H](c3ccc(N4C[C@@H](N)[C@@H](F)C4)nc3)CCN21 [Example 19, 5-[(4R,8R,9aS)-8-[6-[(3R,4S)-3-amino-4-fluoro-pyrrolidin-1-yl]-3-pyridyl]-4-methyl-1,3,4,6,7,8,9,9a-octahydropyrido[1,2-a]pyrazin-2-yl]quinoline-8-carbonitrile] | 15 nM
C[C@@H]1CN(c2ccc(C#N)c3ncccc23)C[C@@H]2C[C@H](Nc3ccc([C@H]4CNCCO4)cc3)CCN21 [Example 20, 5-[(4R,8R,9aS)-4-methyl-8-[4-[(2S)-morpholin-2-yl]anilino]-1,3,4,6,7,8,9,9a-octahydropyrido[1,2-a]pyrazin-2-yl]quinoline-8-carbonitrile] | 13 nM
C[C@@H]1CN(c2ccc(C#N)c3ncccc23)C[C@@H]2C[C@H](Nc3ccc(C[C@@H]4CNCCO4)cc3)CCN21 [Example 21, 5-[(4R,8R,9aS)-4-methyl-8-[4-[[(2R)-morpholin-2-yl]methyl]anilino]-1,3,4,6,7,8,9,9a-octahydropyrido[1,2-a]pyrazin-2-yl]quinoline-8-carbonitrile] | 20 nM
